Read-outs that look alike come from different tables or passages of the source.
Target: T1, IRAK4 (Homo sapiens, UniProt Q9NWZ3)
T1 construct: endogenous in cells; host or cells: Karpas299
T1 sequence (Q9NWZ3 1-460): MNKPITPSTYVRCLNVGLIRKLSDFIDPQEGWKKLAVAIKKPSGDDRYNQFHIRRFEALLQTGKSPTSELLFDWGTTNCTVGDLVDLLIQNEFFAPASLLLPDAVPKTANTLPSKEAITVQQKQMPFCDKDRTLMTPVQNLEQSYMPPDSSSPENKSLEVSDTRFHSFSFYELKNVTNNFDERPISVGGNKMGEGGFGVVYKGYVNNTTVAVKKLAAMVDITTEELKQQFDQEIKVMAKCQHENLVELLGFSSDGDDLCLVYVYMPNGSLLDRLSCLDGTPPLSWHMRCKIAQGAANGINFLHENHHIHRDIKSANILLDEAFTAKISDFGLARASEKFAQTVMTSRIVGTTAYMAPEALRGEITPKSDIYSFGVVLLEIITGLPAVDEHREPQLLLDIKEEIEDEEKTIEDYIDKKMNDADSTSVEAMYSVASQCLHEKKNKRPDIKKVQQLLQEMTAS
Assay: IRAK4 Degradation Assay (Karpas299, HTRF/TR-FRET)
Type: cell-based
Description: IRAK4 degradation was measured using a TR-FRET-based method (Degorce, François, et al. Current chemical genomics. 2009, 3: 22). Karpas299 maintained in RPMI 1640 medium (Thermo Scientific) supplemented with 20% fetal bovine serum (FBS, Thermo Scientific), 100 units/mL penicillin and 0.1 mg/mL streptomycin (Thermo Scientific) were seeded into 96-well plates at the density of 0.2 million cells per well and then treated with a series dilution of compounds. After 24 hours or 5 hours treatment, cells were pelleted via centrifugation and 40 μL lysis buffer (Cisbio) was added to each well after removal of the supernatant. Plates were then incubated at room temperature with shaking for 30 minutes. A total of 16 μL of cell lysates from each well of a 96-well plate was transferred to a 384-well white assay plate. IRAK4 level was quantitated using the HTRF kit as described by the manufacturer manual (Cisbio). FRET signals were measured using a PHERAstar FSX reader (BMG Labtech).
After treatment, add HTRF lysis buffer to each well; seal the plate and incubate 1 hour at room temperature on a plate shaker; Once the cells are lysed, 16 μL of cell lysate are transferred to a PE 384-well HTRF detection plate; 4 μL of pre-mixed HTRF antibodies are added to each well; Cover the plate with a plate sealer, spin 1000 rpm for 1 min, Incubate overnight at room temperature; Read on BMG PheraStar with HTRF protocol (337 nm-665 nm-620 nm).
The inhibition (degradation) percentage of the compound was calculated by the following equation: […]
The IC50 (DC50) value of a compound can be obtained by fitting the following equation
Wherein, X and Y are known values, and IC50, Hillslope, Top and Bottom are the parameters obtained by fitting with software. Y is the inhibition percentage (calculated from the equation), X is the concentration of the compound; IC50 is the concentration of the compound when the […] is reached. The smaller the IC50 value is, the stronger the inhibitory ability of the compound is. Vice versa, the higher the IC50 value is, the weaker the ability the inhibitory ability of the compound is; Hillslope represents the slope of the fitted curve, generally around 1 *; Bottom represents the minimum value of the curve obtained by data fitting, which is generally 0%±20%; Top represents the maximum value of the curve obtained by data fitting, which is generally 100%±20%. The experimental data were fitted by calculating and analyzing with Dotmatics data analysis software.

[1] = Karpas-299 cells, 24 h treatment, maximum percentage of degradation, read-out: IRAK4 in Karpas-299 (24 h) Dmax (%)
[2] = Karpas-299 cells, 24 h treatment, read-out: IRAK4 in Karpas-299 (24 h) DC50
[3] = Karpas-299 cells, 5 h treatment, maximum percentage of degradation, read-out: IRAK4 in Karpas-299 (5 h) Dmax (%)
[4] = Karpas-299 cells, 5 h treatment, read-out: IRAK4 in Karpas-299 (5 h) DC50

Row | Dmax [1] [%] | DC50 [2] [nM] | Dmax [3] [%] | DC50 [4] [nM] | DC50 (Degradation (Karpas-299), comparison table, Linker Type A, read-out: Compound (Linker Type A) DC50) [nM] | Dmax (Degradation (Karpas-299), comparison table, Linker Type A, read-out: Compound (Linker Type A) Dmax (%)) [%] | Compound
1 | 90 | 6.8 | – | – | – | – | O=C1CCN(c2ccc(N3CC[C@H](C(=O)N4CCN([C@H]5CC[C@H](n6cc(NC(=O)c7coc(-c8ccnc(NCC9CC9)c8)n7)c(C(F)F)n6)CC5)CC4)C3)cc2)C(=O)N1 [Example 22, 2-(2-((cyclopropylmethyl)amino)pyridin-4-yl)-N-(3-(difluoromethyl)-1-((1S,4r)-4-(4-((S)-1-(4-(2,4-dioxotetrahydropyrimidin-1(2H)-yl)phenyl)pyrrolidine-3-carbonyl)piperazin-1-yl)cyclohexyl)-1H-pyrazol-4-yl)oxazole-4-carboxamide]
2 | 95 | 2.7 | 91 | 15 | – | – | COc1cc2nn([C@H]3CC[C@H](NC(=O)C4CCN(c5ccc6c(c5)C(=O)N(C5CCC(=O)NC5=O)C6=O)CC4)CC3)cc2cc1NC(=O)c1cccc(C(F)(F)F)n1 (stereo partly shown) [Example 32, N-(2-((1r,4r)-4-(1-(2-(2,6-dioxopiperidin-3-yl)-1,3-dioxoisoindolin-5-yl)piperidine-4-carboxamido)cyclohexyl)-6-methoxy-2H-indazol-5-yl)-6-(trifluoromethyl)picolinamide]
3 | 95 | 6.2 | – | – | 6.2 | 95 | O=C1CC[C@H](c2c(F)cc(N3CC(C(=O)N4CCN(C[C@H]5CC[C@H](n6cc(NC(=O)c7coc(-c8ccnc(NCC(F)(F)F)c8)n7)c(C(F)F)n6)CC5)CC4)C3)cc2F)C(=O)N1 [Example 4, N-(3-(difluoromethyl)-1-((1r,4r)-4-((4-(1-(4-((R)-2,6-dioxopiperidin-3-yl)-3,5-difluorophenyl)azetidine-3-carbonyl)piperazin-1-yl)methyl)cyclohexyl)-1H-pyrazol-4-yl)-2-(2-((2,2,2-trifluoroethyl)amino)pyridin-4-yl)oxazole-4-carboxamide]
4 | 94 | 2.7 | 84 | 7.5 | – | – | O=C1CCN(c2ccc(N3CC(C(=O)N4CCN([C@H]5CC[C@H](n6cc(NC(=O)c7coc(-c8ccnc(NCC(F)(F)F)c8)n7)c(C(F)F)n6)CC5)CC4)C3)cc2)C(=O)N1 [Example 13, N-(3-(difluoromethyl)-1-((1r,4r)-4-(4-(1-(4-(2,4-dioxotetrahydropyrimidin-1(2H)-yl)phenyl)azetidine-3-carbonyl)piperazin-1-yl)cyclohexyl)-1H-pyrazol-4-yl)-2-(2-((2,2,2-trifluoroethyl)amino)pyridin-4-yl)oxazole-4-carboxamide]
5 | 95 | 1 | – | – | – | – | O=C1CC[C@H](c2c(F)cc(N3CC(CN4CCN([C@H]5CC[C@H](n6cc(NC(=O)c7coc(-c8ccnc(NCC(F)(F)F)c8)n7)c(C(F)F)n6)CC5)CC4)C3)cc2F)C(=O)N1 [Example 19, N-(3-(difluoromethyl)-1-((1r,4r)-4-(4-((1-(4-((R)-2,6-dioxopiperidin-3-yl)-3,5-difluorophenyl)azetidin-3-yl)methyl)piperazin-1-yl)cyclohexyl)-1H-pyrazol-4-yl)-2-(2-((2,2,2-trifluoroethyl)amino)pyridin-4-yl)oxazole-4-carboxamide]
6 | 100 | 7.2 | 90 | 41 | – | – | CC(C)(O)c1cc2nc(C3CCN(C4CCN(C(=O)[C@H]5CCN(c6ccc(N7CCC(=O)NC7=O)cc6)C5)CC4)CC3)cn2cc1NC(=O)c1cccc(C(F)(F)F)n1 [Example 128, (S)—N-(2-(1′-(1-(4-(2,4-dioxotetrahydropyrimidin-1(2H)-yl)phenyl)pyrrolidine-3-carbonyl)-[1,4′-bipiperidin]-4-yl)-7-(2-hydroxypropan-2-yl)imidazo[1,2-a]pyridin-6-yl)-6-(trifluoromethyl)picolinamide]
7 | 9 | > 10000 | – | – | – | – | CC(C)(O)c1cc2nn([C@H]3CC[C@H](N4CCN(C(=O)C5CN(c6cc(F)c([C@H]7CCC(=O)NC7=O)c(F)c6)C5)CC4)CC3)cc2cc1NC(=O)c1cnn2cc(C#N)cnc12 [Example 411, 6-cyano-N-(2-((1r,4r)-4-(4-(1-(4-((R)-2,6-dioxopiperidin-3-yl)-3,5-difluorophenyl)azetidine-3-carbonyl)piperazin-1-yl)cyclohexyl)-6-(2-hydroxypropan-2-yl)-2H-indazol-5-yl)pyrazolo[1,5-a]pyrimidine-3-carboxamide]
8 | 95 | 7.7 | – | – | – | – | COc1cc2nn(C3CCN(C4CCN(C(=O)[C@@H]5CCN(c6cc(F)c([C@H]7CCC(=O)NC7=O)c(F)c6)C5)CC4)CC3)cc2cc1NC(=O)c1cccc(C(F)(F)F)n1 [Example 43, N-(2-(1′-((R)-1-(4-((R)-2,6-dioxopiperidin-3-yl)-3,5-difluorophenyl)pyrrolidine-3-carbonyl)-[1,4′-bipiperidin]-4-yl)-6-methoxy-2H-indazol-5-yl)-6-(trifluoromethyl)picolinamide]
9 | 99 | 2.2 | – | – | – | – | O=C1CC[C@H](c2c(F)cc(N3CC[C@@H](C(=O)N4CCN([C@H]5CC[C@H](n6cc(NC(=O)c7coc(-c8ccnc(NCC9CC9)c8)n7)c(C(F)F)n6)CC5)CC4)C3)cc2F)C(=O)N1 [Example 26, 2-(2-((cyclopropylmethyl)amino)pyridin-4-yl)-N-(3-(difluoromethyl)-1-((1R,4r)-4-(4-((R)-1-(4-((R)-2,6-dioxopiperidin-3-yl)-3,5-difluorophenyl)pyrrolidine-3-carbonyl)piperazin-1-yl)cyclohexyl)-1H-pyrazol-4-yl)oxazole-4-carboxamide]
10 | 98 | 2.8 | – | – | – | – | O=C1CCN(c2ccc(N3CC(C(=O)N4CCN([C@H]5CC[C@H](n6cc(NC(=O)c7coc(-c8ccnc(NCC9CC9)c8)n7)c(C(F)F)n6)CC5)CC4)C3)cc2)C(=O)N1 [Example 24, 2-(2-((cyclopropylmethyl)amino)pyridin-4-yl)-N-(3-(difluoromethyl)-1-((1r,4r)-4-(4-(1-(4-(2,4-dioxotetrahydropyrimidin-1(2H)-yl)phenyl)azetidine-3-carbonyl)piperazin-1-yl)cyclohexyl)-1H-pyrazol-4-yl)oxazole-4-carboxamide]
11 | 94 | 1.5 | 78 | 2.2 | – | – | CC(C)(O)c1cc2nc(C3CCN(C4CN(C(=O)[C@@H]5CCN(c6cc(F)c([C@H]7CCC(=O)NC7=O)c(F)c6)C5)C4)CC3)cn2cc1NC(=O)c1cccc(C(F)(F)F)n1 [Example 50, N-(2-(1-(1-((R)-1-(4-((R)-2,6-dioxopiperidin-3-yl)-3,5-difluorophenyl)pyrrolidine-3-carbonyl)azetidin-3-yl)piperidin-4-yl)-7-(2-hydroxypropan-2-yl)imidazo[1,2-a]pyridin-6-yl)-6-(trifluoromethyl)picolinamide]
12 | 97 | 7.7 | – | – | – | – | [2H]C([2H])([2H])Oc1cc2nn([C@H]3CC[C@H](N4CCN(C(=O)[C@@H]5CCN(c6cc(F)c(N7CCC(=O)NC7=O)c(F)c6)C5)CC4)CC3)cc2cc1NC(=O)c1cccc(C(F)(F)F)n1 [Example 174, N-(2-((1R,4r)-4-(4-((R)-1-(4-(2,4-dioxotetrahydropyrimidin-1(2H)-yl)-3,5-difluorophenyl)pyrrolidine-3-carbonyl)piperazin-1-yl)cyclohexyl)-6-(methoxy-d3)-2H-indazol-5-yl)-6-(trifluoromethyl)picolinamide]
